Measurements taken from patent publication US12084458B2, “Substituted pyridines, pyridazines, and pyrimidines as TYK2 inhibitors” (Sudo Biosciences Limited, priority 2021, dated 2024).

Experiments:
[1] = test system: HEK-Blue IL-23 cells (IL-23-stimulated STAT3 SEAP reporter; TYK2 JH2); assay: HEK-Blue IL-23 SEAP reporter assay for profiling TYK2 pseudokinase (JH2) inhibition; assay type: cell-based; conditions: 10 ng/mL human recombinant IL-23, SEAP reporter, read-out: IL23 (TYK2 inhibitory activity, IC50)
Protocol: (§1) Example B-1: HEK-Blue™ IL-23 and IFNα/β Reporter Assays for Profiling TYK2 Pseudokinase (JH2) Inhibition
(§2) HEK-Blue™ IL-23 and IFNα/β cells with a stably-integrated cytokine receptor and STAT3 or STAT1 express STAT-inducible secreted embryonic alkaline phosphatase (SEAP) reporter gene upon cytokine stimulation. These cells are plated in DMEM (Gibco) containing 10% heat-inactivated FBS (Gibco) and 100 U/mL PenStrep (Gibco) at 37° C. under 5% CO2 conditions for 20-22 hours. The cells are then pretreated with serially diluted test compounds for 60 min prior to stimulation with either 10 ng/mL human recombinant IL-23 (Miltenyl Biotech) or 1 ng/mL human recombinant IFNα (InvivoGen) for 22-24 hours for IL-23 or 16-18 h for IFNα. SEAP induction is measured using the QUANTI Blue™ Solution (InvivoGen) according to the manufacturer's instructions.

[2] = test system: HEK-Blue IFNα/β cells (IFNα-stimulated STAT1 SEAP reporter; TYK2 JH2); assay: HEK-Blue IFNα/β SEAP reporter assay for profiling TYK2 pseudokinase (JH2) inhibition; assay type: cell-based; set-up: IFNα (TYK2 inhibitory activity, IC50): scale not given here; conditions: 1 ng/mL human recombinant IFNα; for IC50: Homo sapiens, HEK-Blue, read-out: IFNα (TYK2 inhibitory activity, IC50)
Protocol: as §1, §2

Structure (SMILES) | IC50 [1] [nM] | IC50 [2] [nM] | IFNα (TYK2 inhibitory activity, IC50) [2]
[2H]C([2H])([2H])NC(=O)c1nnc(NC(=O)C2CC2)cc1Nc1cccc2c1N(C)[C@H](C)c1nc(C)nn1-2 (single isomer, unassigned) [Compound 23] | < 30 | 30 to 300 | 
[2H]C([2H])([2H])NC(=O)c1cnc(NC(=O)C2CC2)cc1Nc1cccc2c1N(C)[C@H](C)c1nc(C)nn1-2 (single isomer, unassigned) [Compound 24] | < 30 | 30 to 300 | 
[2H]C([2H])([2H])NC(=O)c1cnc(NC(=O)C2CC2)cc1Nc1cccc2c1N(C)[C@H](C)c1nn(C)nc1-2 (single isomer, unassigned) [Compound 58] | < 30 | 300 to 1000 | 
[2H]C([2H])([2H])NC(=O)c1nnc(NC(=O)C2CC2)cc1Nc1cccc2c1N(C)[C@H](C)c1nn(C)nc1-2 (single isomer, unassigned) [Compound 59] | < 30 | 30 to 300 | 
[2H]C([2H])([2H])NC(=O)c1nnc(NC(=O)NC)cc1Nc1cccc2c1N(C)[C@H](C)c1nn(C)nc1-2 (single isomer, unassigned) [Compound 61] | 30 to 300 | 300 to 1000 | 
[2H]C([2H])([2H])NC(=O)c1nnc(NC(=O)NC)cc1Nc1nccc2c1N(C)[C@H](C)c1nn(C)nc1-2 (single isomer, unassigned) [Compound 99] | 30 to 300 | 30 to 300 | 
[2H]C([2H])([2H])NC(=O)c1cnc(NC(=O)C2CC2)cc1Nc1cc(F)cc2c1N(C)[C@H](C)c1nc(C)nn1-2 (single isomer, unassigned) [Compound 106] | 30 to 300 | > 1000 | 
[2H]C([2H])([2H])NC(=O)c1nnc(NC(=O)C2CC2)cc1Nc1cc(F)cc2c1N(C)[C@H](C)c1nc(C)nn1-2 (single isomer, unassigned) [Compound 109] | 30 to 300 | 300 to 1000 | 
CNC(=O)c1nnc(Nc2ccc(F)cn2)cc1Nc1cccc2c1OCc1nc(C)nn1-2 [Compound 2, 6-((5-fluoropyridin-2-yl)amino)-N-methyl-4-((2-methyl-4H-benzo[b][1,2,4]triazolo[1,5-d][1,4]oxazin-6-yl)amino)pyridazine-3-carboxamide] | > 1000 | > 1000 | 
CNC(=O)c1nnc(NC(=O)C2CC2)cc1Nc1cccc2c1OCc1nc(CO)nn1-2 [Compound 3, 6-(cyclopropanecarboxamido)-4-((2-(hydroxymethyl)-4H-benzo[b][1,2,4]triazolo[1,5-d][1,4]oxazin-6-yl)amino)-N-methylpyridazine-3-carboxamide] | > 1000 | > 1000 | 
[2H]C([2H])([2H])NC(=O)c1nnc(NC(=O)CN2CCOCC2)cc1Nc1cccc2c1N(C)Cc1nc(C)nn1-2 [Compound 9, 4-((2,5-dimethyl-4,5-dihydro-[1,2,4]triazolo[1,5-a]quinoxalin-6-yl)amino)-N-(methyl-d3)-6-(2-morpholinoacetamido)pyridazine-3-carboxamide] | 30 to 300 |  | C/D
[2H]C([2H])([2H])NC(=O)c1nnc(NC(=O)CN(C)C)cc1Nc1cccc2c1N(C)Cc1nc(C)nn1-2 [Compound 14, 4-((2,5-dimethyl-4,5-dihydro-[1,2,4]triazolo[1,5-a]quinoxalin-6-yl)amino)-6-(2-(dimethylamino)acetamido)-N-(methyl-d3)pyridazine-3-carboxamide] | 30 to 300 | 300 to 1000 | 
[2H]C([2H])([2H])NC(=O)c1nnc(Nc2cc(C)cc(C)c2)cc1Nc1cccc2c1N(C)Cc1nc(C)nn1-2 [Compound 16, 4-((2,5-dimethyl-4,5-dihydro-[1,2,4]triazolo[1,5-a]quinoxalin-6-yl)amino)-6-((3,5-dimethylphenyl)amino)-N-(methyl-d3)pyridazine-3-carboxamide] | 30 to 300 |  | C/D
[2H]C([2H])([2H])NC(=O)c1nnc(NC(=O)C(C)C)cc1Nc1cccc2c1N(C)Cc1nc(C)nn1-2 [Compound 17, 4-((2,5-dimethyl-4,5-dihydro-[1,2,4]triazolo[1,5-a]quinoxalin-6-yl)amino)-6-isobutyramido-N-(methyl-d3)pyridazine-3-carboxamide] | 30 to 300 | 300 to 1000 | 
[2H]C([2H])([2H])NC(=O)c1nnc(NC(=O)CC(F)(F)F)cc1Nc1cccc2c1N(C)Cc1nc(C)nn1-2 [Compound 18, 4-((2,5-dimethyl-4,5-dihydro-[1,2,4]triazolo[1,5-a]quinoxalin-6-yl)amino)-N-(methyl-d3)-6-(3,3,3-trifluoropropanamido)pyridazine-3-carboxamide] | 30 to 300 | 300 to 1000 | 
[2H]C([2H])([2H])NC(=O)c1nnc(NC(=O)N(C)C)cc1Nc1cccc2c1N(C)Cc1nc(C)nn1-2 [Compound 20, 4-((2,5-dimethyl-4,5-dihydro-[1,2,4]triazolo[1,5-a]quinoxalin-6-yl)amino)-6-(3,3-dimethylureido)-N-(methyl-d3)pyridazine-3-carboxamide] | 30 to 300 | > 1000 | 
[2H]C([2H])([2H])NC(=O)c1cnc(NC(=O)C2CC2)nc1Nc1cccc2c1N(C)Cc1nc(C)nn1-2 [Compound 21, 2-(cyclopropanecarboxamido)-4-((2,5-dimethyl-4,5-dihydro-[1,2,4]triazolo[1,5-a]quinoxalin-6-yl)amino)-N-(methyl-d3)pyrimidine-5-carboxamide] | 30 to 300 | 30 to 300 | 
[2H]C([2H])([2H])NC(=O)c1nnc(NC(=O)C2(F)CC2)cc1Nc1cccc2c1N(C)Cc1nc(C)nn1-2 [Compound 37, 4-((2,5-dimethyl-4,5-dihydro-[1,2,4]triazolo[1,5-a]quinoxalin-6-yl)amino)-6-(1-fluorocyclopropane-1-carboxamido)-N-(methyl-d3)pyridazine-3-carboxamide] | 30 to 300 | > 1000 | 
[2H]C([2H])([2H])NC(=O)c1nnc(NS(=O)(=O)C2CC2)cc1Nc1cccc2c1N(C)Cc1nc(C)nn1-2 [Compound 38, 6-(cyclopropanesulfonamido)-4-((2,5-dimethyl-4,5-dihydro-[1,2,4]triazolo[1,5-a]quinoxalin-6-yl)amino)-N-(methyl-d3)pyridazine-3-carboxamide] | > 1000 | > 1000 | 
[2H]C([2H])([2H])NC(=O)c1nnc(NC(=O)[C@@H]2CC2(F)F)cc1Nc1cccc2c1N(C)Cc1nc(C)nn1-2 [Compound 41, (S)-6-(2,2-difluorocyclopropane-1-carboxamido)-4-((2,5-dimethyl-4,5-dihydro-[1,2,4]triazolo[1,5-a]quinoxalin-6-yl)amino)-N-(methyl-d3)pyridazine-3-carboxamide] | 30 to 300 | 30 to 300 | 
[2H]C([2H])([2H])NC(=O)c1nnc(NC(=O)[C@H]2CC2(F)F)cc1Nc1cccc2c1N(C)Cc1nc(C)nn1-2 [Compound 42, (R)-6-(2,2-difluorocyclopropane-1-carboxamido)-4-((2,5-dimethyl-4,5-dihydro-[1,2,4]triazolo[1,5-a]quinoxalin-6-yl)amino)-N-(methyl-d3)pyridazine-3-carboxamide] | 30 to 300 | 30 to 300 | 
[2H]C([2H])([2H])NC(=O)c1nnc(NC(=O)C2CC2)cc1Nc1cccc2c1N(C)[C@@H](C([2H])([2H])[2H])c1nc(C)nn1-2 [Compound 43, (S)-6-(cyclopropanecarboxamido)-4-((2,5-dimethyl-4-(methyl-d3)-4,5-dihydro-[1,2,4]triazolo[1,5-a]quinoxalin-6-yl)amino)-N-(methyl-d3)pyridazine-3-carboxamide] | 30 to 300 | 300 to 1000 | 
